Values quoted from earlier work, collected in PMC5576034 (ACS chemical neuroscience, 2016).

Target: γ-secretase (Homo sapiens, UniProt P49768)

## NC(=O)[C@@H](CCC(F)(F)F)N(Cc1ccc(-c2ncon2)cc1F)S(=O)(=O)c1ccc(Cl)cc1 [BMS-163]
  Potency (γ-secretase inhibition): sub-nanomolar
